Data: article PMC4503694, “The Human Autoantibody Response to Apolipoprotein A-I Is Focused on the C-Terminal Helix: A New Rationale for Diagnosis and Treatment of Cardiovascular Disease?” (PLoS ONE, 2015)

Columns and labels:
[1] = tested on: anti-ApoA-I antibodies in plasma samples from three different patients; assay: Competition ELISA with plasma of three individual anti-ApoA-I-positive patients; format: binding, human; conditions: preincubated 2 h at room temperature with peptide, n = 3 (Fig 3)
Experimental: We next performed ELISA assays using plasma samples from three different anti-ApoA-I autoantibody-positive patients from the cohort pre-incubated with Peptide F, a scrambled version of Peptide F (Table 1), or the stapled peptide F3L1 prior to addition to wells coated with ApoA-I (Fig 3).
Plasma samples were preincubated (2 h, room temperature) with peptides at the indicated concentrations prior to addition to assay wells. Percent maximal ELISA signals were calculated as 100 × ([signal in well]-[mean background signal (uncoated well)])/ ([mean maximal signal (no peptide)]-[mean background signal]). Results are expressed as mean ± SD (n = 3).

[2] = tested on: human monocyte-derived macrophages; assay: Anti-ApoA-I IgG-mediated IL-6 and TNF-α release from human monocyte-derived macrophages; format: cell-based; conditions: peptide preincubated with anti-ApoA-I IgG 2 h at room temperature; highest concentration 1 mg/mL (Fig 5, 6)
Experimental: Human monocytes were isolated from buffy coats from healthy donors at the Geneva University Hospitals Blood Transfusion Center and differentiated into macrophages by 24 h incubation with IFN-γ (500 U/ml) in complete RPMI-1640 culture medium (10% heat-inactivated FCS, 50 μg/ml streptomycin, 50 U/ml penicillin, 2 mM L-glutamine), as previously described. Assays of anti-ApoA-I IgG-mediated release of IL-6 and TNF-α from human monocyte-derived macrophages was carried out as described previously using a previously determined optimal concentration of polyclonal goat anti-ApoA-I IgG (40 μg/ml). Endotoxin contamination in the assay was excluded using the limulus amebocyte lysate Endochrome assay. Where indicated, anti-ApoA-I IgG was pre-incubated with peptide […] (1 mg/mL) for 2 h at room temperature prior addition to the cells. Each experiment was performed on cells from […] different healthy blood donors. […] We next used a Luminex assay to measure the capacity of peptide […] to inhibit endotoxin-free anti-ApoA-I IgG-mediated proinflammatory cytokine release in human monocyte-derived macrophages (Fig 5a and 5b). As expected from previously published work, anti-ApoA-I IgG elicited a significant increase in production of both in IL-6 and TNF-α when compared to control IgG (Ctl IgG; p<0.0001 for both cytokines). […] We were unable to measure the inhibitory activity of intact purified and delipidated ApoA-I in this assay because traces of endotoxin elicit significant levels of background cytokine secretion (NV and SP, unpublished observations).  Fig 5 Peptide […] inhibits anti-ApoA-I IgG-mediated release of proinflammatory cytokines from cultured human monocyte-derived macrophages. Release of proinflammatory cytokines TNF-α (a) IL-6 (b) from human monocyte-derived macrophages induced by endotoxin-free goat polyclonal anti-ApoA-I IgG was determined with or without preincubation (2 h at room temperature) of the anti-ApoA-I IgG with peptide […] (1 mg/mL) and the corresponding scrambled peptide (Scr Pept). […] Anti-ApoA-I IgG was incubated with the indicated […] concentrations (preincubation 2 h at room temperature) prior to addition to cultured human monocyte-derived macrophages. Levels of proinflammatory cytokines were determined after 24 h culture. Experiments were repeated using cells from three different healthy donors, with results expressed as median, interquartile range (IQR) and range.

RAW cells = assay: Anti-ApoA-I IgG-induced TNF-α release in RAW mouse macrophage cell line; format: cell-based; conditions: anti-ApoA-I IgG 100 μg/ml preincubated 2 h with peptide 100 to 0.06 μg/ml; 24 h stimulation; ELISA; n = 3 (Fig 7)
Experimental: Raw cells were seeded in 96-well plates at 2 × 10^5 cells/well in DMEM culture medium (10% heat-inactivated FCS, 50 μg/ml streptomycin, 50 U/ml penicillin) for 24 h. Anti-Apo-A1 IgG (100 μg/ml) were incubated with peptides across a concentration range from 100 μg/ml to 0.06 μg/ml for 2 h at room temperature prior addition to cells. After 24 h stimulation, mouse TNF-α was quantified in the cell supernatants by ELISA according to manufacturer’s instructions (R&D system, MN).
Fig 7 Comparing the inhibitory potency of Peptide F and F3L1 on anti-ApoA-I IgG-induced TNF-α. Anti-ApoA-I IgG was incubated with the indicated peptide concentrations (preincubation 2 h at room temperature) prior to addition to cultured RAW cells. Levels of proinflammatory cytokines (TNF-α) were determined after 24 h culture. Mean levels (n = 3) are shown with error bars indicating the range.

- inhibition of binding of anti-ApoA-I IgG to immobilized ApoA-I [1]: No inhibition was detectable
Sequence: KELYLLKFTVESKVGSTELPLNFSLA [F (scrambled), scrambled version of Peptide F, control peptide, reference compound]
- inhibition of anti-ApoA-I IgG-induced TNF-α and IL-6 release [2]: did not inhibit
- inhibitory potency on anti-ApoA-I IgG-induced TNF-α (RAW cells): no detectable inhibitory activity
